Measured values from PubChem BioAssay (NCI).
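Growth conditions: 96-well plates. Treatment: test compound, 48 hours, 5 concentrations. Analysis: linear interpolation between bracketing concentrations; unreached endpoints set to highest concentration. The concentration for full growth arrest is given as TGI.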

Experiments:
Assay in all cases: NCI-60 cell line screen, 48 h
[1] = tested on: U251 CNS
[2] = tested on: TK-10 renal
[3] = tested on: DLD-1 colon
[4] = tested on: SK-MEL-2 melanoma
[5] = tested on: SW-620 colon
[6] = tested on: OVCAR-3 ovarian
[7] = tested on: K-562 leukemia
[8] = tested on: KM12 colon
[9] = tested on: UO-31 renal
[10] = tested on: SNB-78 CNS
[11] = tested on: CCRF-CEM leukemia
[12] = tested on: SK-MEL-28 melanoma
[13] = tested on: RXF-631 renal
[14] = tested on: EKVX NSCLC
[15] = tested on: IGROV1 ovarian
[16] = tested on: M19-MEL melanoma
[17] = tested on: HL-60(TB) leukemia
[18] = tested on: UACC-257 melanoma
[19] = tested on: HOP-92 NSCLC
[20] = tested on: SF-268 CNS
[21] = tested on: NCI-H522 lung
[22] = tested on: M14 melanoma
[23] = tested on: COLO 205 colon
[24] = tested on: SN12C renal
[25] = tested on: KM20L2 colon
[26] = tested on: HCT-116 colon
[27] = tested on: DMS 273 small cell lung
[28] = tested on: A498 renal
[29] = tested on: MOLT-4 leukemia
[30] = tested on: SF-539 CNS
[31] = tested on: ACHN renal
[32] = tested on: SF-295 CNS
[33] = tested on: SNB-75 CNS
[34] = tested on: HCT-15 colon
[35] = tested on: NCI-H23 lung
[36] = tested on: HCC-2998 colon
[37] = tested on: SK-MEL-5 melanoma
[38] = tested on: LXFL 529 NSCLC
[39] = tested on: OVCAR-5 ovarian
[40] = tested on: SR leukemia
[41] = tested on: HOP-18 NSCLC
[42] = tested on: HOP-62 NSCLC
[43] = tested on: SK-OV-3 ovarian
[44] = tested on: A549 NSCLC
[45] = tested on: NCI-H226 lung
[46] = tested on: OVCAR-8 ovarian
[47] = tested on: CAKI-1 renal
[48] = tested on: UACC-62 melanoma
[49] = tested on: HT29 colon
[50] = tested on: OVCAR-4 ovarian
[51] = tested on: MALME-3M melanoma
[52] = tested on: RPMI-8226 leukemia
[53] = tested on: XF 498 CNS
[54] = tested on: NCI-H460 lung
[55] = tested on: SNB-19 CNS
[56] = tested on: 786-0 renal
[57] = tested on: DMS 114 small cell lung
[58] = tested on: RXF 393 renal
[59] = tested on: LOX IMVI melanoma

## OCC1O[C@H](O[C@@H]2CCCN3CC(O)C(O)[C@@H]23)C(O)C(O)C1O (some centres not stated)
[1]
  TGI: > 100 µM
[2]
  TGI: > 100 µM
[3]
  TGI: > 100 µM
[4]
  TGI: > 100 µM
[5]
  TGI: > 100 µM
[6]
  TGI: > 100 µM
[7]
  TGI: > 100 µM
[8]
  TGI: > 100 µM
[9]
  TGI: > 100 µM
[10]
  TGI: > 100 µM
[11]
  TGI: > 100 µM
[12]
  TGI: > 100 µM
[13]
  TGI: > 100 µM
[14]
  TGI: > 100 µM
[15]
  TGI: > 100 µM
[16]
  TGI: > 100 µM
[17]
  TGI: > 100 µM
[18]
  TGI: > 100 µM
[19]
  TGI: > 100 µM
[20]
  TGI: > 100 µM
[21]
  TGI: > 100 µM
[22]
  TGI: > 100 µM
[23]
  TGI: > 100 µM
[24]
  TGI: > 100 µM
[25]
  TGI: > 100 µM
[26]
  TGI: > 100 µM
[27]
  TGI: > 100 µM
[28]
  TGI: > 100 µM
[29]
  TGI: > 100 µM
[30]
  TGI: > 100 µM
[31]
  TGI: > 100 µM
[32]
  TGI: > 100 µM
[33]
  TGI: > 100 µM
[34]
  TGI: > 100 µM
[35]
  TGI: > 100 µM
[36]
  TGI: > 100 µM
[37]
  TGI: > 100 µM
[38]
  TGI: > 100 µM
[39]
  TGI: > 100 µM
[40]
  TGI: > 100 µM
[41]
  TGI: > 100 µM
[42]
  TGI: > 100 µM
[43]
  TGI: > 100 µM
[44]
  TGI: > 100 µM
[45]
  TGI: > 100 µM
[46]
  TGI: > 100 µM
[47]
  TGI: > 100 µM
[48]
  TGI: > 100 µM
[49]
  TGI: > 100 µM
[50]
  TGI: > 100 µM
[51]
  TGI: > 100 µM

## Cc1ccc(NC(=O)CCc2nc(=S)[nH][nH]2)cc1
[1]
  TGI: > 100 µM
[2]
  TGI: > 100 µM
[3]
  TGI: > 100 µM
[4]
  TGI: > 100 µM
[5]
  TGI: > 100 µM
[6]
  TGI: > 100 µM
[7]
  TGI: > 100 µM
[8]
  TGI: > 100 µM
[9]
  TGI: > 100 µM
[52]
  TGI: > 100 µM
[10]
  TGI: > 100 µM
[11]
  TGI: > 100 µM
[53]
  TGI: > 100 µM
[12]
  TGI: > 100 µM
[13]
  TGI: > 100 µM
[14]
  TGI: > 100 µM
[15]
  TGI: > 100 µM
[16]
  TGI: > 100 µM
[17]
  TGI: > 100 µM
[54]
  TGI: > 100 µM
[18]
  TGI: > 100 µM
[19]
  TGI: > 100 µM
[20]
  TGI: > 100 µM
[21]
  TGI: > 100 µM
[22]
  TGI: > 100 µM
[55]
  TGI: > 100 µM
[23]
  TGI: > 100 µM
[24]
  TGI: > 100 µM
[25]
  TGI: > 100 µM
[26]
  TGI: > 100 µM
[27]
  TGI: > 100 µM
[28]
  TGI: > 100 µM
[29]
  TGI: > 100 µM
[30]
  TGI: > 100 µM
[31]
  TGI: > 100 µM
[32]
  TGI: > 100 µM
[33]
  TGI: > 100 µM
[56]
  TGI: > 100 µM
[34]
  TGI: > 100 µM
[35]
  TGI: > 100 µM
[37]
  TGI: > 100 µM
[38]
  TGI: > 100 µM
[39]
  TGI: > 100 µM
[57]
  TGI: > 100 µM
[40]
  TGI: > 100 µM
[41]
  TGI: > 100 µM
[42]
  TGI: > 100 µM
[43]
  TGI: > 100 µM
[44]
  TGI: > 100 µM
[45]
  TGI: > 100 µM
[46]
  TGI: > 100 µM
[47]
  TGI: > 100 µM
[48]
  TGI: > 100 µM
[49]
  TGI: > 100 µM
[50]
  TGI: > 100 µM
[51]
  TGI: > 100 µM

## COc1ccccc1NC(=O)C1=C(C)NC(C)=C(C(=O)Nc2ccccc2OC)C1c1ccccc1[N+](=O)[O-]
[1]
  TGI: 29.7 µM
[2]
  TGI: 59.2 µM
[3]
  TGI: 36.5 µM
[4]
  TGI: 26 µM
[6]
  TGI: 39.1 µM
[7]
  TGI: 65 µM
[8]
  TGI: 35 µM
[9]
  TGI: 37.6 µM
[52]
  TGI: 65.6 µM
[10]
  TGI: > 100 µM
[11]
  TGI: 48.9 µM
[53]
  TGI: 46.2 µM
[12]
  TGI: 33.9 µM
[13]
  TGI: 53.6 µM
[14]
  TGI: > 100 µM
[15]
  TGI: 45 µM
[16]
  TGI: 49 µM
[17]
  TGI: 45.3 µM
[54]
  TGI: 32.8 µM
[18]
  TGI: 47.5 µM
[19]
  TGI: 59.5 µM
[20]
  TGI: 50.7 µM
[21]
  TGI: 26.8 µM
[22]
  TGI: 30 µM
[23]
  TGI: 31.6 µM
[24]
  TGI: 37.4 µM
[26]
  TGI: > 100 µM
[27]
  TGI: 34.9 µM
[58]
  TGI: > 100 µM
[29]
  TGI: 49.5 µM
[30]
  TGI: 37 µM
[31]
  TGI: 37.5 µM
[32]
  TGI: > 100 µM
[33]
  TGI: > 100 µM
[56]
  TGI: 35.5 µM
[34]
  TGI: 27.5 µM
[35]
  TGI: 43.6 µM
[36]
  TGI: 33 µM
[37]
  TGI: 74.3 µM
[38]
  TGI: 25 µM
[39]
  TGI: 85.4 µM
[57]
  TGI: 31.2 µM
[40]
  TGI: 39.6 µM
[41]
  TGI: > 100 µM
[42]
  TGI: 88.2 µM
[43]
  TGI: 68 µM
[44]
  TGI: > 100 µM
[45]
  TGI: 35.2 µM
[46]
  TGI: 40.5 µM
[59]
  TGI: 33.2 µM
[48]
  TGI: 54.1 µM
[49]
  TGI: 37 µM
[50]
  TGI: 46.3 µM
[51]
  TGI: 36.2 µM

## CCCCC1=CSC(c2ccccc2)=C(c2ccccc2)S1
[1]
  TGI: > 100 µM
[2]
  TGI: > 100 µM
[3]
  TGI: > 100 µM
[5]
  TGI: > 100 µM
[6]
  TGI: > 100 µM
[7]
  TGI: > 100 µM
[8]
  TGI: > 100 µM
[9]
  TGI: > 100 µM
[52]
  TGI: > 100 µM
[10]
  TGI: > 100 µM
[11]
  TGI: > 100 µM
[12]
  TGI: > 100 µM
[13]
  TGI: > 100 µM
[14]
  TGI: > 100 µM
[15]
  TGI: > 100 µM
[16]
  TGI: > 100 µM
[54]
  TGI: > 100 µM
[19]
  TGI: 60.9 µM
[22]
  TGI: > 100 µM
[55]
  TGI: > 100 µM
[23]
  TGI: > 100 µM
[24]
  TGI: > 100 µM
[25]
  TGI: > 100 µM
[26]
  TGI: > 100 µM
[27]
  TGI: > 100 µM
[28]
  TGI: > 100 µM
[29]
  TGI: > 100 µM
[30]
  TGI: > 100 µM
[32]
  TGI: > 100 µM
[33]
  TGI: > 100 µM
[56]
  TGI: > 100 µM
[34]
  TGI: > 100 µM
[35]
  TGI: > 100 µM
[36]
  TGI: > 100 µM
[37]
  TGI: > 100 µM
[38]
  TGI: > 100 µM
[57]
  TGI: > 100 µM
[41]
  TGI: > 100 µM
[43]
  TGI: > 100 µM
[44]
  TGI: > 100 µM
[45]
  TGI: > 100 µM
[46]
  TGI: > 100 µM
[59]
  TGI: > 100 µM
[48]
  TGI: > 100 µM
[49]
  TGI: > 100 µM
[50]
  TGI: > 100 µM
